According to patent publication US11857638B2, “Quinone-containing conjugates” (PROMEGA CORPORATION, priority 2018, dated 2024):

Key:
[1] = tested on: luciferase; experiment: Activity as a substrate for luciferase; type: biochemical; details: D-luciferin derivatized on the 6′ hydroxyl with TMQ linker
Source text: (§1) This property may provide an additional advantage in ADCs where it is critical that payload is not released outside of target cells. The observations are as follows. When D-luciferin is derivatized on the 6′ hydroxyl by addition of the TMQ linker, its activity as a substrate for luciferase is blocked (PBI-4312), but free D-luciferin that is fully active with luciferase is readily released

[2] = target: human diaphorase (Homo sapiens, UniProt P15559); experiment: Non-cellular reductive release of luciferin (luciferin detection reagent with reductase and NADH); type: biochemical; details: after 1 hour, FIG. 3
human diaphorase, sequence (P15559 whole entry): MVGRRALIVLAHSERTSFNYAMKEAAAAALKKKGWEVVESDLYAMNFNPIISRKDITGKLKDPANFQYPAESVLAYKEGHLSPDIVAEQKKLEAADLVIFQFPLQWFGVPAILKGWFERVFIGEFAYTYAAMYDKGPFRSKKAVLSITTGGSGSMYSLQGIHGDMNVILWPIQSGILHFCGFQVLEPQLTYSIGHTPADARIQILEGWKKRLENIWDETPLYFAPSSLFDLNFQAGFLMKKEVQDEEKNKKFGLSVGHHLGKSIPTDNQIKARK
Source text: as §1
[drawing 143] from a luciferin-TMQ derivative when subjected to reducing conditions inside or outside of a cell. However, release of D-luciferin from a protein-TMQ-luciferin conjugate by an extracellular reductive mechanism was substantially diminished compared to luciferin-TMQ. In other words, the protein moiety of the conjugate stabilizes the luciferin payload against reductive release from the TMQ linker in a non-cellular environment. Non-cellular reducing conditions include an aqueous reducing agent solution (e.g. DTT) or a reductase reaction mixture (FIG. 3). This was true for two conjugates with a luciferin payload as well as a luciferin-TMQ conjugate with bovine serum albumin (BSA). Whereas the reaction conditions produced substantial amounts of light with PBI-4312 (>900,000 RLU after 1 hour), only minimal signals were produced from similar amounts of the protein conjugates (<800 RLUs after 1 hour). […]

CC1=C(C)C(=O)C(C(C)(C)CC(=O)N(C)CCN(C)C(=O)Oc2ccc3nc(C4=N[C@@H](C(=O)O)CS4)sc3c2)=C(C)C1=O [PBI-4312]
activity as a substrate for luciferase [1]: blocked | light produced (luciferin luminescence) [2]: > 900,000 RLU
